What follows are molecules tested on Plasmodium falciparum (assay: Antimalarial activity against chloroquine-sensitive Plasmodium falciparum 3D7 MRA-102 infected in human erythrocytes assessed as reduction in parasite growth incubated for 72 hrs by SYBR green dye based fluorescence assay). Settings: 3D7 MRA-102, Erythrocyte.
Type: functional, organism-based

SMILES | EC50 [µM]
Cc1csc(C(C)(O)c2ncnc3sccc23)n1 (configuration not stated) | > 23
CCOC(=O)/C=C(/c1nc(C)cs1)c1ncnc2sccc12 | 6.97
Cn1c(C2(c3ncnc4sccc34)CC2)nc2ccccc21 | > 23
Cc1csc(Sc2ncnc3sccc23)n1 | 0.037
Cc1csc(C(=O)c2ncnc3sccc23)n1 | 4.08
Cc1csc(C2(c3ncnc4sccc34)CC2)n1 | > 23
Cn1c(Sc2ncnc3sccc23)nc2ccccc21 | 0.191
